# Values of other authors as cited in patent publication US20050255150A1 (priority 2004, published 2005).
# Settings: in vivo
Compound,Intramuscular Administration equivalent of 10 mg of intramuscular morphine in 24 hours [mg],Oral Administration equivalent of 10 mg morphine in 24 hours (po),Oral Administration equivalent of 10 mg morphine in 24 hours (value in brackets) (po)
COc1ccc2c3c1O[C@H]1[C@@H](O)C=C[C@H]4[C@@H](C2)N(C)CC[C@@]341 [Codeine],130,200 mg,–
CC(=O)Oc1ccc2c3c1O[C@H]1[C@@H](OC(C)=O)C=C[C@H]4[C@@H](C2)N(C)CC[C@@]341 [Heroin],5,60 mg,–
CCOC(=O)C1(c2ccccc2)CCN(C)CC1 [Meperidine],75,–,–
CCC(=O)C(CC(C)N(C)C)(c1ccccc1)c1ccccc1 (centres unmarked) [Methadone],10,20 mg,–
CN1CC[C@]23c4c5ccc(O)c4O[C@H]2[C@@H](O)C=C[C@H]3[C@H]1C5 [Morphine],10,60 (30 mg),60 (30 mg)
COc1ccc2c3c1O[C@H]1C(=O)CC[C@@]4(O)[C@@H](C2)N(C)CC[C@]314 [Oxycodone],15,30 mg,–
CN1CC[C@]23c4c5ccc(O)c4O[C@H]2C(=O)CC[C@@]3(O)[C@H]1C5 [Oxymorphone],1,10 mg,–
